# Test results: patent US10357483B2, “Methods comprising dosing combinations for reducing undesired humoral immune responses” (Selecta Biosciences, Inc., priority 2013, dated 2019)
# Tests used:
# huTNFaTg [1] = assay: Anti-HUMIRA antibody titers in arthritic animals (Example 9); type: in vivo, mice; conditions: 60 μg HUMIRA s.c. weekly; 0.87 mg nanocarriers with first 7 injections; FIG. 9A day 21
# Experimental: (§1) Transgenic animals overexpressing human tumor necrosis factor alpha (huTNFaTg) develop progressive rheumatoid arthritis over the course of 20 weeks from birth. This process can be prevented by using the fully human anti-human TNFα antibody HUMIRA/adalimumab. However, repetitive administration of the initial therapeutic dose of HUMIRA (60 μg) leads to anti-drug antibody formation (ADA) that neutralizes the therapeutic benefit. Only very high doses can then maintain the therapeutic benefit and surmount the neutralizing immune response. For example, it is thought that about 200 μg is needed to effect maximal inhibition of inflammation in an example of such a mouse model (Binder et al., Arthritis & Rheumatism, Vol. 65 (No. 3), March 2013, pp. 608-617).
# (§2) The results in FIG. 9A show the antibody titers in the blood of all animals at day 21.
# huTNFaTg [2] = assay: Arthritis scores of limbs in arthritic animals (Example 9); type: in vivo, mice; conditions: 60 μg HUMIRA s.c. weekly, weeks 5 to 15 of age; 0.87 mg nanocarriers with first 7 injections
# Experimental: as §1, §2
# C57BL/6 [3] = assay: Anti-HUMIRA antibody titers in blood; type: in vivo, mice; conditions: day 21; 60 μg HUMIRA s.c. weekly; 0.9 mg nanocarrier admixed on day 0 only
# Experimental: Control C57BL/6 age-matched (5-6 weeks) females were injected subcutaneously (s.c.) in the front limbs with 60 μg of HUMIRA once a week until day 29 (on d0, 7, 14, 22, 29, across all groups and conditions). […] The results presented in FIG. 3A show the antibody titers in the blood of all animals at day 21. […] At day 29, the animals received another challenge in one hind limb (a further second dosing) while the other hind limb received saline in order to test the local antibody-mediated type I hypersensitivity response. For this, the thickness of the hind limbs were measured with the help of a caliper one hour after the injection.
# huTNFaTg [4] = conditions: such a mouse model; Binder et al. 2013; cited from earlier work
# HuTNFαTg [5] = assay: Arthritis scores of limbs in arthritic animals (Example 14); type: in vivo; conditions: HUMIRA s.c. weekly weeks 5-10; nanocarriers with first 3 injections
# Experimental: Age-matched HuTNFαTg 5 week old female animals were either injected s.c. in the subscapular area with saline (PBS) or 60 μg or 200 μg of HUMIRA weekly (weeks 5-10) or with a mixture of 60 μg of Humira and 0.87 mg of tolerogenic nanoparticles (first dosings) for the first 3 injections (week 5 to 7 of age) followed by 3 weekly injections of HUMIRA alone (same amounts) (second dosings) (weeks 8 to 10 of age). The results in FIG. 11 (left panel) show the antibody titers in the blood of all animals at different time points. […] FIG. 12 illustrates the dosing regimen.
# HuTNFαTg [6] = assay: Anti-HUMIRA antibody titers in arthritic animals (Example 14); type: in vivo; conditions: HUMIRA s.c. weekly weeks 5-10; 0.87 mg nanoparticles with 60 μg Humira for first 3 injections
# Experimental: Anti-HUMIRA immune and neutralizing responses in arthritic animals were evaluated. Transgenic animals overexpressing human tumor necrosis factor alpha (huTNFαTg) develop progressive rheumatoid arthritis over the course of 20 weeks from birth. This process can be prevented by using the fully human anti-human TNFα antibody Adalimumab or HUMIRA. However repetitive administration of the initial therapeutic dose of HUMIRA (60 μg) leads to anti-drug antibody formation (ADA) that neutralizes the therapeutic benefit. Higher quantities of Humira (200 μg can be injected to overcome this antagonizing immune response to allow for the therapeutic effect of Humira. Age-matched HuTNFαTg 5 week old female animals were either injected s.c. in the subscapular area with saline (PBS) or 60 μg or 200 μg of HUMIRA weekly (weeks 5-10) or with a mixture of 60 μg of Humira and 0.87 mg of tolerogenic nanoparticles (first dosings) for the first 3 injections (week 5 to 7 of age) followed by 3 weekly injections of HUMIRA alone (same amounts) (second dosings) (weeks 8 to 10 of age). The results in FIG. 11 (left panel) show the antibody titers in the blood of all animals at different time points. […] FIG. 12 illustrates the dosing regimen.
# C57BL/6 [7] = assay: Anti-KRYSTEXXA IgM antibody titers; type: in vivo, mice; conditions: 0.9 mg nanocarriers + 40 μg KRYSTEXXA i.v. days −21 and −14; then 100 μg KRYSTEXXA + 20 μg CpG s.c. day 0 to 28
# Experimental: All animals received weekly injections from day 0 to day 28 of 100 μg of KRYSTEXXA combined with 20 μg of CpG s.c. in the hind limb (d0, 7, 12, 28).
# C57BL/6 [8] = assay: Anti-OVA and anti-KLH IgG antibody titers (Example 7); type: in vivo, mice; conditions: day 54; pOVA 2.5 μg i.v. weekly; 0.2 mg nanocarriers admixed days 0, 7, 14
# Experimental: The control group of C57BL/6 age-matched (5-6 weeks) female were injected i.v. in the tail vein with 2.5 μg of an immunogenic form of particulate Ovalbumin (pOVA) and 2 μg of Keyhole Limpet Hemocyanin (KLH) s.c. in the hind limb once a week for 49 days (d0, 7, 14, 20, 28, 35, 42, 49).
molecule,measurement,setting,value
adalimumab [HUMIRA],anti-HUMIRA antibody titers,huTNFaTg [1],robust antibody response
same,arthritis scores (disease progression),huTNFaTg [2],significant blockade of the disease progression
same,anti-HUMIRA antibody titers,C57BL/6 [3],robust antibody response against HUMIRA
same,dose needed to effect maximal inhibition of inflammation,huTNFaTg [4],about 200 μg
same,arthritis scores (disease progression),HuTNFαTg [5],significant blockade of the disease progression
same,anti-HUMIRA antibody titers,HuTNFαTg [6],robust anti-HUMIRA antibody response
pegloticase [KRYSTEXXA],anti-KRYSTEXXA IgM antibody titers,C57BL/6 [7],develop an immune response against KRYSTEXXA
"pOVA: immunogenic form of particulate Ovalbumin (protein, UniProt P01012 2-386, looked up, particulate form, immunogenic form of particulate Ovalbumin) Ovalbumin: GSIGAASMEFCFDVFKELKVHHANENIFYCPIAIMSALAMVYLGAKDSTRTQINKVVRFDKLPGFGDSIEAQCGTSVNVHSSLRDILNQITKPNDVYSFSLASRLYAEERYPILPEYLQCVKELYRGGLEPINFQTAADQARELINSWVESQTNGIIRNVLQPSSVDSQTAMVLVNAIVFKGLWEKAFKDEDTQAMPFRVTEQESKPVQMMYQIGLFRVASMASEKMKILELPFASGTMSMLVLLPDEVSGLEQLESIINFEKLTEWTSSNVMEERKIKVYLPRMKMEEKYNLTSVLMAMGITDVFSSSANLSGISSAESLKISQAVHAAHAEINEAGREVVGSAEAGVDAASVSEEFRADHPFLFCIKHIATNAVLFFGRCVSP",anti-OVA IgG antibody titers,C57BL/6 [8],robust immune response against OVA and KLH
